Each structure is given as a SMILES string. Like-named read-outs stand apart in the source and are kept apart here.

21 compounds from patent publication US7745619B2, “Vinca derivatives” (priority 2003, dated 2010) can be followed below.

The subject of one assay is HeLa S-3 cells. Description: HeLa GI50 determination (SRB growth inhibition). In kind it is cell-based, human. The settings on record: Homo sapiens, HeLa S3, 48 h. How it is done:
Growth inhibition (GI50) values were measured on the human cervical carcinoma cell line, HeLa S-3, which were selected for growth on plastic. The HeLa cell assay was based on the description of Skehan et al., J. Natl. Cancer Inst., 82:1107-12 (1990), which is hereby incorporated by reference in its entirety. HeLa cells were plated at 2×10^4 cells/well in 96 well plates. One day later, a control plate was fixed by the addition of TCA to 5%. After five rinses with tap water, the plate was air-dried and stored at 4° C. Test compounds were added to the remaining plates at 10-fold dilutions. Two days later, all plates were fixed as described above. Cells were then stained by the addition of 100 μL per well of 0.4% sulforhodamine B (SRB) in 1% acetic acid for 30 min at 4° C. Wells were then quickly rinsed 5× with 1% acetic acid and allowed to air dry. The SRB was then solubilized by the addition of 100 μL per well of unbuffered 10 mM Tris base. Dye was quantified by measuring absorbance at 490 nm on a Molecular Devices microplate reader. Growth inhibition was calculated according to the following equation: GI=100×(T−T0)/(C−T0), where the optical density (OD) of the test well after 2 days of treatment was T, the OD of the wells in the control plate on day 0 was T0 and C was the OD of untreated wells. Plots of percent growth inhibition versus inhibitor concentration were used to determine the GI50.

In another assay the test system is MCF-7 cells. Nature of the assay: MCF-7 GI50 determination (crystal violet growth inhibition). The assay is classed as cell-based, human. The settings on record: Homo sapiens, MCF7, 96 h. As for the experimental part: Growth inhibition (GI50) values were measured on the human breast carcinoma line, MCF-7. MCF-7 cells were plated at 2×10^4 cells/well in 96 well plates and grown for 24 hours in drug free media. On day 2, test compounds were added to the plates at 10-fold dilutions. Four days later, cells were fixed by the addition of glutaraldehyde to 0.75%. After 30 min, the fixed cells were extensively rinsed with distilled water and dried at room temperature for one hour. The cells were then stained with a 0.2% crystal violet solution for one hour at room temperature. Unbound stain was removed by ten rinses with tap water and plates were allowed to air dry for 30 min. The crystal violet was then solubilized by the addition of 10% acetic acid for 15 min and quantified by measuring absorbance at 570 nm on a Molecular Devices microplate reader. Growth inhibition was calculated according to the following equation: GI=[…], where the optical density (OD) of the test well after 4 days of treatment was T, the OD of the wells in the control plate on day 0 was T0. Plots of percent growth inhibition versus inhibitor concentration were used to determine the GI50.

[1] abbreviates: read-out: MCF-7 Cells GI50 (nM).
Where [2] appears, read: HeLa S-3 cells, 2 days of treatment, sulforhodamine B, read-out: HeLa Cells GI50.
The mark [3] stands for this setting: MCF-7 cells, 4 days of treatment, crystal violet, read-out: MCF-7 Cells GI50.

A word on the GI50: it is the concentration giving 50% growth inhibition. Take `CC[C@]1(O)C[C@H]2CN(CCc3c([nH]c4ccc(SCCCN5CCOCC5)cc34)[C@@](C(=O)OC)(c3cc4c(cc3OC)N(C)[C@H]3[C@@](O)(C(=O)OC)[C@H](OC(C)=O)[C@]5(CC)C=CCN6CC[C@]43[C@@H]65)C2)C1` [Example 49, 12′-(3-(morpholin-4-yl)propylsulfanyl) vinblastine]: the values for the GI50 with HeLa S-3 cells (read-out: HeLa Cells GI50 (nM)) and with MCF-7 cells (setting [1]) were 8 nM and 30 nM, respectively.

Regarding `CC[C@]1(O)C[C@H]2CN(CCc3c([nH]c4ccc(-c5cccnc5)cc34)[C@@](C(=O)OC)(c3cc4c(cc3OC)N(C)[C@H]3[C@@](O)(C(=O)OC)[C@H](OC(C)=O)[C@]5(CC)C=CCN6CC[C@]43[C@@H]65)C2)C1` [Example 13, 12′-(3-pyridyl) vinblastine], the values for the GI50 with HeLa S-3 cells (read-out: HeLa Cells GI50 (nM)) and with MCF-7 cells (setting [1]) were greater than 1000 nM and 600 nM, respectively.

Regarding `CC[C@]1(O)C[C@H]2CN(CCc3c([nH]c4ccc(-c5ccc(OC)cc5)cc34)[C@@](C(=O)OC)(c3cc4c(cc3OC)N(C=O)[C@H]3[C@@](O)(C(=O)OC)[C@H](OC(C)=O)[C@]5(CC)C=CCN6CC[C@]43[C@@H]65)C2)C1` [Example 7, 12′-(4-methoxyphenyl) vincristine], the results for the concentration for 50% growth inhibition (GI50) with HeLa S-3 cells (read-out: HeLa Cells GI50 (nM)) and with MCF-7 cells (setting [1]) were 400 nM and 100 nM, respectively.

Take `CC[C@]1(O)C[C@H]2CN(CCc3c([nH]c4ccc(N5CCCCC5)cc34)[C@@](C(=O)OC)(c3cc4c(cc3OC)N(C)[C@H]3[C@@](O)(C(=O)OC)[C@H](OC(C)=O)[C@]5(CC)C=CCN6CC[C@]43[C@@H]65)C2)C1` [Example 85, 12′-(1-piperidinyl) vinblastine]: the GI50 in the assay on HeLa S-3 cells (read-out: HeLa Cells GI50 (nM)) turned out to be 20 nM; in the assay on MCF-7 cells (setting [1]), 30 nM.

Consider `CC[C@]1(O)C[C@H]2CN(CCc3c([nH]c4ccc(SCCO)cc34)[C@@](C(=O)OC)(c3cc4c(cc3OC)N(C)[C@H]3[C@@](O)(C(=O)OC)[C@H](OC(C)=O)[C@]5(CC)C=CCN6CC[C@]43[C@@H]65)C2)C1` [Example 35, 12′-(2-hydroxyethylsulfanyl)vinblastine], for which the values for the GI50 in the assay on HeLa S-3 cells (setting [2]) and with MCF-7 cells (setting [3]) were 200 nM and 60 nM, respectively.

In the case of `CC[C@]1(O)C[C@H]2CN(CCc3c([nH]c4ccc(CCC(C)C)cc34)[C@@](C(=O)OC)(c3cc4c(cc3OC)N(C=O)[C@H]3[C@@](O)(C(=O)OC)[C@H](OC(C)=O)[C@]5(CC)C=CCN6CC[C@]43[C@@H]65)C2)C1` [Example 73, 12′-(3-methylbutyl) vincristine], the GI50 came to 200 nM with HeLa S-3 cells (read-out: HeLa Cells GI50 (nM)) and 300 nM with MCF-7 cells (setting [1]).

With `CC[C@]1(O)C[C@H]2CN(CCc3c([nH]c4ccc(/C=C/C(=O)O)cc34)[C@@](C(=O)OC)(c3cc4c(cc3OC)N(C)[C@H]3[C@@](O)(C(=O)OC)[C@H](OC(C)=O)[C@]5(CC)C=CCN6CC[C@]43[C@@H]65)C2)C1` [Example 28, 12′-(2-carboxylvinyl) vinblastine], the GI50 in the assay on HeLa S-3 cells (read-out: HeLa Cells GI50 (nM)) stood at 100 nM; with MCF-7 cells (setting [1]) it was 300 nM.

Turning to `CC[C@]1(O)C[C@H]2CN(CCc3c([nH]c4ccc(N5CCCC5)cc34)[C@@](C(=O)OC)(c3cc4c(cc3OC)N(C)[C@H]3[C@@](O)(C(=O)OC)[C@H](OC(C)=O)[C@]5(CC)C=CCN6CC[C@]43[C@@H]65)C2)C1` [Example 87, 12′-(pyrrolidin-1-yl) vinblastine], the GI50 came to 50 nM in the assay on HeLa S-3 cells (read-out: HeLa Cells GI50 (nM)) and 60 nM in the assay on MCF-7 cells (setting [1]).

Regarding `CC[C@]1(O)C[C@H]2CN(CCc3c([nH]c4ccc(SSC)cc34)[C@@](C(=O)OC)(c3cc4c(cc3OC)N(C)[C@H]3[C@@](O)(C(=O)OC)[C@H](OC(C)=O)[C@]5(CC)C=CCN6CC[C@]43[C@@H]65)C2)C1` [Example 57, 12′-(methyldisulfanyl) vinblastine], the GI50 in the assay with HeLa S-3 cells (setting [2]) and with MCF-7 cells (setting [3]) was 300 nM throughout.

As for `CC[C@]1(O)C[C@H]2CN(CCc3c([nH]c4ccc(Nc5ccccc5)cc34)[C@@](C(=O)OC)(c3cc4c(cc3OC)N(C)[C@H]3[C@@](O)(C(=O)OC)[C@H](OC(C)=O)[C@]5(CC)C=CCN6CC[C@]43[C@@H]65)C2)C1` [Example 82, 12′-(phenylamino) vinblastine], the GI50 in the assay on HeLa S-3 cells (read-out: HeLa Cells GI50 (nM)) came out at 300 nM; in the assay on MCF-7 cells (setting [1]), 600 nM.

Turning to `CCSc1ccc2[nH]c3c(c2c1)CCN1C[C@H](C[C@@](O)(CC)C1)C[C@]3(C(=O)OC)c1cc2c(cc1OC)N(C=O)[C@H]1[C@@](O)(C(=O)OC)[C@H](OC(C)=O)[C@]3(CC)C=CCN4CC[C@]21[C@@H]43` [Example 40, 12′-(ethylsulfanyl) vincristine], the 50% growth inhibitory concentration (GI50) in the assay on HeLa S-3 cells (setting [2]) amounted to 6 nM; with MCF-7 cells (setting [3]) it was 8 nM.

Turning to `CC[C@]1(O)C[C@H]2CN(CCc3c([nH]c4cc(I)c(C)cc34)[C@@](C(=O)OC)(c3cc4c(cc3OC)N(C=O)[C@H]3[C@@](O)(C(=O)OC)[C@H](OC(C)=O)[C@]5(CC)C=CCN6CC[C@]43[C@@H]65)C2)C1` [Example 92, 13′-iodo-12′-methyl vincristine], the GI50 in the assay with HeLa S-3 cells (read-out: HeLa Cells GI50 (nM)) and in the assay with MCF-7 cells (setting [1]) was 30 nM each time.

In the case of `CCCCC#Cc1ccc2[nH]c3c(c2c1)CCN1C[C@H](C[C@@](O)(CC)C1)C[C@]3(C(=O)OC)c1cc2c(cc1OC)N(C=O)[C@H]1[C@@](O)(C(=O)OC)[C@H](OC(C)=O)[C@]3(CC)C=CCN4CC[C@]21[C@@H]43` [Example 22, 12′-hexynylvincristine], the concentration for 50% growth inhibition (GI50) in the assay on HeLa S-3 cells (read-out: HeLa Cells GI50 (nM)) and in the assay on MCF-7 cells (setting [1]) was 300 nM each time.

Turning to `CC[C@]1(O)C[C@H]2CN(CCc3c([nH]c4ccc(C=O)cc34)[C@@](C(=O)OC)(c3cc4c(cc3OC)N(C)[C@H]3[C@@](O)(C(=O)OC)[C@H](OC(C)=O)[C@]5(CC)C=CCN6CC[C@]43[C@@H]65)C2)C1` [Example 61, 12′-formylvinblastine], the concentration for 50% growth inhibition (GI50) in the assay on HeLa S-3 cells (setting [2]) and in the assay on MCF-7 cells (setting [3]) was 3 nM each time.

With `CC[C@]1(O)C[C@H]2CN(CCc3c([nH]c4ccc(SSC(C)(C)C)cc34)[C@@](C(=O)OC)(c3cc4c(cc3OC)N(C)[C@H]3[C@@](O)(C(=O)OC)[C@H](OC(C)=O)[C@]5(CC)C=CCN6CC[C@]43[C@@H]65)C2)C1` [Example 59, 12′-(tert-butyldisulfanyl) vinblastine], the GI50 in the assay with HeLa S-3 cells (read-out: HeLa Cells GI50 (nM)) and with MCF-7 cells (setting [1]) was 300 nM in each case.

As to `CC[C@]1(O)C[C@H]2CN(CCc3c([nH]c4ccc(SCCC(=O)OC)cc34)[C@@](C(=O)OC)(c3cc4c(cc3OC)N(C=O)[C@H]3[C@@](O)(C(=O)OC)[C@H](OC(C)=O)[C@]5(CC)C=CCN6CC[C@]43[C@@H]65)C2)C1` [Example 47, 12′-(methoxycarbonylethylsulfanyl) vincristine], the concentration for 50% growth inhibition (GI50) in the assay with HeLa S-3 cells (read-out: HeLa Cells GI50 (nM)) was 20 nM; with MCF-7 cells (setting [1]), 40 nM.

As for `CC[C@]1(O)C[C@H]2CN(CCc3c([nH]c4ccc(SSC(C)C)cc34)[C@@](C(=O)OC)(c3cc4c(cc3OC)N(C)[C@H]3[C@@](O)(C(=O)OC)[C@H](OC(C)=O)[C@]5(CC)C=CCN6CC[C@]43[C@@H]65)C2)C1` [Example 58, 12′-(isopropyldisulfanyl) vinblastine], the GI50 in the assay on HeLa S-3 cells (read-out: HeLa Cells GI50 (nM)) came to 200 nM; with MCF-7 cells (setting [1]) it was 100 nM.

On to `CC[C@]1(O)C[C@H]2CN(CCc3c([nH]c4ccc(CO)cc34)[C@@](C(=O)OC)(c3cc4c(cc3OC)N(C)[C@H]3[C@@](O)(C(=O)OC)[C@H](OC(C)=O)[C@]5(CC)C=CCN6CC[C@]43[C@@H]65)C2)C1` [Example 63, 12′-(hydroxymethyl) vinblastine], for which the GI50 in the assay with HeLa S-3 cells (setting [2]) worked out at 40 nM; in the assay with MCF-7 cells (setting [3]), 60 nM.

For the compound `CC[C@]1(O)C[C@H]2CN(CCc3c([nH]c4ccc(SCCCN5CCCCC5)cc34)[C@@](C(=O)OC)(c3cc4c(cc3OC)N(C)[C@H]3[C@@](O)(C(=O)OC)[C@H](OC(C)=O)[C@]5(CC)C=CCN6CC[C@]43[C@@H]65)C2)C1` [Example 50, 12′-(3-(piperidin-1-yl)propylsulfanyl) vinblastine], the GI50 stood at 20 nM in the assay with HeLa S-3 cells (setting [2]) and 40 nM in the assay with MCF-7 cells (setting [3]).

Turning to `CC[C@]1(O)C[C@H]2CN(CCc3c([nH]c4ccc(-c5cccc(OC)c5)cc34)[C@@](C(=O)OC)(c3cc4c(cc3OC)N(C)[C@H]3[C@@](O)(C(=O)OC)[C@H](OC(C)=O)[C@]5(CC)C=CCN6CC[C@]43[C@@H]65)C2)C1` [Example 9, 12′-(3-methoxyphenyl) vinblastine], the GI50 with HeLa S-3 cells (read-out: HeLa Cells GI50 (nM)) was 300 nM; in the assay on MCF-7 cells (setting [1]) it was 500 nM.

With `CC[C@]1(O)C[C@H]2CN(CCc3c([nH]c4cc(C)c(C)cc34)[C@@](C(=O)OC)(c3cc4c(cc3OC)N(C=O)[C@H]3[C@@](O)(C(=O)OC)[C@H](OC(C)=O)[C@]5(CC)C=CCN6CC[C@]43[C@@H]65)C2)C1` [Example 93, 12′,13′-dimethyl vincristine], the GI50 is 20 nM in the assay with HeLa S-3 cells (read-out: HeLa Cells GI50 (nM)) and 30 nM in the assay on MCF-7 cells (setting [1]).
